Laboratory results taken from US20190054067A1, “COMPOSITIONS AND METHODS FOR TREATING COMPULSIVE-LIKE BEHAVIOR IN A SUBJECT” (UNIVERSITY OF THE SCIENCES, priority 2016, published 2019).

Tests used:
[1] = tested on: compulsive-like BIG male mice; assay: compulsive-like nest building (NB) behavior; format: in vivo, Mus musculus; conditions: for overall nesting scores vs control (saline) / overall nesting scores vs control: 0-24 h; for suppression of NB vs control: chronic (daily s.c., tested day 30); for overall nesting scores vs control: chronic; for effect on NB (ANOVA over dose groups): chronic, 2, 4 and 6 mg/kg groups
Protocol: (§1) Compulsive-like BIG male mice, Mus musculus, were raised on wood shavings in polypropylene cages (27×17×12 cm) under controlled temperature (22±1° C.) and light (12:12 light-dark cycle) with free access to food (Purina Mills, Lab Diet Mouse Diet #5015, St. Louis, Mo.) and water. Animals were approximately 12-16 weeks of age at the start of each experiment.
(§2) Deformylflustrabromine hydrochloride (dFBr; Abcam Biochemicals) was dissolved in physiological saline (pH=6.7) to yield final doses of 2.0 mg/kg (0.27 mg/mL), 4 mg/kg (0.53 mg/mL) and 6 mg/kg (0.80 mg/mL). Saline was used as a vehicle control (0 mg/kg). A mouse of 40 g received an injection volume of 0.3 mL. Injection volumes were proportionally adjusted according to the body weight of individual animals.
(§3) Acute Study: Male BIG mice were divided into four treatment groups comprising vehicle (sterile saline), 2 mg/kg, 4 mg/kg and 6 mg/kg. Animals in each group (n=12 per group) were tested for nesting on day 1, MB on day 3 and open field (OF) on day 5. On the first day of testing animals randomly received dFBr or vehicle subcutaneously and in subsequent tests received the same dose. Days 2 and 4 were employed to avoid any residual effects of dFBr from previous administration. For nesting, data were collected after 1, 2, 3, 4, 5 and 24 h due to the progressive nature of the NB (The BIG mice typically get excited and indulge in excessive and repetitive NB when introduced to cotton for the first 3-4 h in the light cycle. This excessive and repetitive nesting activity resumes again in the dark cycle). MB and OF behavior was performed 2 h after dFBr administration (FIG. 1).
(§4) Chronic Study; Since the foundation of the animal model was established through effective reversal of compulsive-like NB and MB behaviors by chronic fluoxetine treatment, a chronic regimen was also conducted to establish the sustained and long term effects of dFBr on NB and MB. Animals belonging to 0, 2, 4 and 6 mg/kg dose group (n=12 per group) received single subcutaneous injection of dFBr or saline daily for 32 days. NB, MB and OF behaviors were assessed in the final week (weeks 5) after dFBr administration (NB after 1, 2, 3, 4, 5 and 24 h, and MB after 2 h of drug injection). NB was performed on day 30, MB on day 31 and OF on day 32 (FIG. 1).
Nest-building behavior was performed to assess compulsive-like behavior in the mice. For both acute and chronic studies, immediately following subcutaneous injection of dFBr, compulsive-like male mice were singly housed and provided with a pre-weighed roll of cotton (Mountain Mist cotton batting, Troy, Inc., Chicago, Ill.) in the cage-top food hopper. The cotton roll was weighed after 1, 2, 3, 4, 5 and 24 hours. Nesting behavior was quantified by the grams of cotton used during each testing period.
(§5) Statistical analysis was performed in Graphpad Prism (GraphPad Software, Inc) and Statistical Analysis System Software (Version 9.4, Cary, N.C.). Nest-building (grams of cotton), marble burying (number of marbles at least ⅔ buried) and open field measures (time in center and total distance travelled) were expressed as the mean±standard error of the mean (SEM). The nest building data were shown as grams of cotton used, whereas the statistical analysis was conducted on the square-root transformed nesting scores in order to normalize the data (Bult & Lynch, 2000, Behavior Genetics 30:193-206). Nesting scores at different time points, marble burying and open field results were analyzed by one-way analysis of variance (ANOVA), whereas overall drug and drug by time interaction effect between 0-5 hours was done by two-way analysis of variance (ANOVA). Pairwise comparisons for significant differences were tested by the post-hoc Bonferroni multiple comparison test. A probability level of p<0.05 was used as an index of statistical significance in all cases.

[2] = tested on: compulsive-like BIG male mice; assay: compulsive-like marble burying (MB) behavior; format: in vivo, Mus musculus; conditions: for marble-burying behavior (marbles at least 2/3 buried) vs control: acute, 2 h after administration; for suppression of MB vs control: chronic, fifth week (day 31), 2 h after injection
Protocol: as §1, §2, §3, §4
The marble-burying test is an effective test for determining compulsive-like behavior in mice. […] Two hours after dFBr administration, compulsive-like male mice were individually introduced to a polypropylene cage (37×21×14 cm) containing 20 glass marbles (10 mm in diameter) evenly spaced on 5 cm deep wood chip bedding without access to food or water for 20 min. Testing was carried out in the testing room separate from the housing room. The total number of marbles buried at least ⅔ in the 20-min period was quantified as compulsive-like digging behavior. After the 20-min test, the animals were returned to their home cages.
as §5

[3] = cited from earlier work
[4] = target: high sensitivity (HS) α4β2 receptors (Homo sapiens, UniProt P17787+P43681); conditions: cited from earlier work
[5] = target: low sensitivity (LS) α4β2 receptors (Homo sapiens, UniProt P17787+P43681); conditions: cited from earlier work
[6] = tested on: compulsive-like BIG male mice; assay: open field (OF) test, anxiety-like and locomotor behavior; format: in vivo, Mus musculus
Protocol: as §1, §2
Acute Study: Male BIG mice were divided into four treatment groups comprising vehicle (sterile saline), 2 mg/kg, 4 mg/kg and 6 mg/kg. Animals in each group (n=12 per group) were tested for nesting on day 1, MB on day 3 and open field (OF) on day 5. On the first day of testing animals randomly received dFBr or vehicle subcutaneously and in subsequent tests received the same dose. Days 2 and 4 were employed to avoid any residual effects of dFBr from previous administration. […]
as §4, with “Animals belonging to 0, 2, 4 and 6 mg/kg dose group (n=12 per group) received single subcutaneous injection of dFBr or saline daily for 32 days.” left out, “NB was performed on day 30, MB on day 31 and OF on day 32 (FIG. 1).” left out
Anxiety-like behaviors were determined through the open field test. […] The animals were placed in the center of the open field, and their behavior was video taped for 3 min and analyzed with the aid of ANYMAZE™ video tracking software (Stoelting Co., Ill.). The time spent in the center (anxiety-like measure) and total distance travelled (locomotion) in the entire open field were measured. […]
Statistical analysis was performed in Graphpad Prism (GraphPad Software, Inc) and Statistical Analysis System Software (Version 9.4, Cary, N.C.). Nest-building (grams of cotton), marble burying (number of marbles at least ⅔ buried) and open field measures (time in center and total distance travelled) were expressed as the mean±standard error of the mean (SEM). […] Nesting scores at different time points, marble burying and open field results were analyzed by one-way analysis of variance (ANOVA), whereas overall drug and drug by time interaction effect between 0-5 hours was done by two-way analysis of variance (ANOVA). […]

[7] = tested on: compulsive-like BIG male mice; conditions: compulsive-like BIG mice (Greene-Schloesser et al., 2011); cited from earlier work
[8] = tested on: compulsive-like BIG male mice; conditions: compulsive-like BIG mice (Greene-Schloesser et al., 2011); cited from earlier work; remark: listed apart in the source
compulsive-like BIG mice = conditions: cited from earlier work
[9] = acute, 0, 2, 4, 6 mg/kg s.c., 2 h after administration
[10] = chronic regimen (day 32), 0, 2, 4, 6 mg/kg

Chain of high sensitivity (HS) α4β2 receptors (P43681 29-627 limits assumed): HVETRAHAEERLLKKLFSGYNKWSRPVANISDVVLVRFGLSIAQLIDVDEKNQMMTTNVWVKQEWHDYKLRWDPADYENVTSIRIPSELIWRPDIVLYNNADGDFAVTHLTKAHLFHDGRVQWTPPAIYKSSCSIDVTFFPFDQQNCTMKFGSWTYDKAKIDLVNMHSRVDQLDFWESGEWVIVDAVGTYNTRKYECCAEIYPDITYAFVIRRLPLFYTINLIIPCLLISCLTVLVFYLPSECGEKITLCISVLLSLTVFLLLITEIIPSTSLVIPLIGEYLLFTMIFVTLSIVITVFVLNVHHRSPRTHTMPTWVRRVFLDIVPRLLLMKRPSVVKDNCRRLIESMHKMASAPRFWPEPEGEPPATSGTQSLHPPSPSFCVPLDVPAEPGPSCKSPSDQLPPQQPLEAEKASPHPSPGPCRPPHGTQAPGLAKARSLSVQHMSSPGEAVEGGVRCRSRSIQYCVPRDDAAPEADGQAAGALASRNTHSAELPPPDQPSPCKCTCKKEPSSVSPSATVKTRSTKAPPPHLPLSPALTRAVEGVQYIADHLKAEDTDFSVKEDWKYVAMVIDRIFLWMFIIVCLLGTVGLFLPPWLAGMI
Chain of high sensitivity (HS) α4β2 receptors (P17787 26-502): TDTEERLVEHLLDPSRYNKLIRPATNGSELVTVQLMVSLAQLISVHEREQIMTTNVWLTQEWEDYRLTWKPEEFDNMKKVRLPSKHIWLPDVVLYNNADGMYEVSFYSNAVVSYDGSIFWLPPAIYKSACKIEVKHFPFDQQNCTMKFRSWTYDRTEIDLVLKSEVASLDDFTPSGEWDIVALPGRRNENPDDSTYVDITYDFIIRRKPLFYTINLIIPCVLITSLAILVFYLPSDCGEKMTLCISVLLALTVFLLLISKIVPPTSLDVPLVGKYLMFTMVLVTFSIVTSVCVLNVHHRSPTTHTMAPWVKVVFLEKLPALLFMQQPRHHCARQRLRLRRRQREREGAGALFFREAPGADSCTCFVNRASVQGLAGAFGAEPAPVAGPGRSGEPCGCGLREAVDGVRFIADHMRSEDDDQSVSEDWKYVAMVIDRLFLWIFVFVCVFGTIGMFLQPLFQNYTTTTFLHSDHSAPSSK
Chain of low sensitivity (LS) α4β2 receptors (P43681 29-627 limits assumed): as the sequence (P43681 29-627 limits assumed) above
Chain of low sensitivity (LS) α4β2 receptors (P17787 26-502): as the sequence (P17787 26-502) above

Structure (SMILES): C=CC(C)(C)c1[nH]c2cc(Br)ccc2c1CCNC [dFBr, 2-[6-bromo-2-(2-methylbut-3-en-2-yl)-1H-indol-3-yl]-N-methylethanamine]
- nesting (cotton used) vs control (saline) ([1]; acute, 2 mg/kg s.c., 0-1 h): no significant attenuation of nesting
- overall nesting scores vs control (saline) ([1]; acute, 2 mg/kg s.c.): significantly below the control group
- nesting (cotton used) vs control (saline) ([1]; acute, 2 mg/kg s.c., 1-2 h): no significant effect
- nesting (cotton used) vs control (saline) ([1]; acute, 2 mg/kg s.c., 2-3 h): No significant difference
- nesting (cotton used) vs control (saline) ([1]; acute, 2 mg/kg s.c., 3-4 h): not significantly different
- nesting (cotton used) vs control (saline) ([1]; acute, 2 mg/kg s.c., 4-5 h): not significantly different
- nesting (cotton used) vs control (saline) ([1]; acute, 2 mg/kg s.c., 5-24 h): suppressed the nesting score significantly
- fractional nesting score (nesting score divided by average of vehicle group) ([1]; acute, 2 mg/kg s.c., first 5 hours): ~1
- nesting (cotton used) vs control (saline) ([1]; acute, 2 mg/kg s.c., overall 0-5 h): did not attenuate nesting
- time of greatest suppression of nesting (fractional nesting score) ([1]; acute, 4 mg/kg s.c.): 1 to 2 h
- nesting (cotton used) vs control (saline) ([1]; acute, 4 mg/kg s.c., 0-1 h): no significant attenuation of nesting
- overall nesting scores vs control (saline) ([1]; acute, 4 mg/kg s.c.): significantly below the control group
- nesting (cotton used) vs control (saline) ([1]; acute, 4 mg/kg s.c., 1-2 h): significantly attenuated nesting
- nesting (cotton used) vs control (saline) ([1]; acute, 4 mg/kg s.c., 2-3 h): No significant difference
- nesting (cotton used) vs control (saline) ([1]; acute, 4 mg/kg s.c., 3-4 h): significantly reduced
- nesting (cotton used) vs control (saline) ([1]; acute, 4 mg/kg s.c., 4-5 h): not significantly different
- nesting (cotton used) vs control (saline) ([1]; acute, 4 mg/kg s.c., 5-24 h): suppressed the nesting score significantly
- nesting (cotton used) vs control (saline) ([1]; acute, 4 mg/kg s.c., overall 0-5 h): significantly reduced
- time of greatest suppression of nesting (fractional nesting score) ([1]; acute, 6 mg/kg s.c.): 1 to 2 h
- nesting (cotton used) vs control (saline) ([1]; acute, 6 mg/kg s.c., 0-1 h): no significant attenuation of nesting
- overall nesting scores vs control (saline) ([1]; acute, 6 mg/kg s.c.): significantly below the control group
- nesting (cotton used) vs control (saline) ([1]; acute, 6 mg/kg s.c., 1-2 h): significantly attenuated nesting
- nesting (cotton used) vs control (saline) ([1]; acute, 6 mg/kg s.c., 2-3 h): significantly reduced
- nesting (cotton used) vs control (saline) ([1]; acute, 6 mg/kg s.c., 3-4 h): significantly reduced
- nesting (cotton used) vs control (saline) ([1]; acute, 6 mg/kg s.c., 4-5 h): not significantly different
- nesting (cotton used) vs control (saline) ([1]; acute, 6 mg/kg s.c., 5-24 h): suppressed the nesting score significantly
- nesting (cotton used) vs control (saline) ([1]; acute, 6 mg/kg s.c., overall 0-5 h): significantly reduced
- suppression of NB vs control ([1]; 2 mg/kg, 1-2 h): main attenuating effects
- suppression of NB vs control ([1]; 4 mg/kg, 0-1 h): most effective doses
- suppression of NB vs control ([1]; 6 mg/kg, 0-1 h): most effective doses
- suppression of NB vs control ([1]; 6 mg/kg, 1-2 h): main attenuating effects
- overall nesting scores vs control ([1]; 2 mg/kg): significantly below the control group
- overall nesting scores vs control ([1]; 4 mg/kg): significantly below the control group
- overall nesting scores vs control ([1]; 6 mg/kg): significantly below the control group
- effect on NB (ANOVA over dose groups) ([1]; 2-3 h): No significant effect
- effect on NB (ANOVA over dose groups) ([1]; 3-4 h): No significant effect
- effect on NB (ANOVA over dose groups) ([1]; 4-5 h): No significant effect
- marble-burying behavior (marbles at least 2/3 buried) vs control ([2]; 2 mg/kg s.c.): decreased marble-burying behavior
- marble-burying behavior (marbles at least 2/3 buried) vs control ([2]; 4 mg/kg s.c.): decreased marble-burying behavior
- marble-burying behavior (marbles at least 2/3 buried) vs control ([2]; 6 mg/kg s.c.): decreased marble-burying behavior
- reduction of MB behavior vs control ([2]; chronic regimen, 2 mg/kg, 2 h time point): not significant
- suppression of MB vs control ([2]; 4 mg/kg): maximum suppression of MB
- suppression of MB vs control ([2]; 6 mg/kg): maximum suppression of MB
- amount reaching the cerebrospinal fluid ([3]; after 90 min of subcutaneous administration): around 36%
- time of peak levels in the cerebrospinal fluid ([3]; rats, after administration): 90 min
- potentiation of acetylcholine-induced whole cell responses [4]: 370%
- EC50 ([4]; read-out: EC50 of potentiation): 40 µM
- potentiation of acetylcholine-induced whole cell responses [5]: 260%
- EC50 ([5]; read-out: EC50 of potentiation): 2.5 µM
- time spent in center of the OF (anxiety-like) [6, 9]: No significant differences
- total distance traveled (locomotor activity) [6, 9]: not different among the treatment groups
- time in center [6, 10]: did not differ among treatment groups
- total distance [6, 10]: did not differ among treatment groups

Structure (SMILES): CNCCC(Oc1ccc(C(F)(F)F)cc1)c1ccccc1 (centres unmarked) [fluoxetine]
- MB behavior [7]: significantly attenuated
- NB behavior [8]: significantly attenuated
- overall wheel-running locomotion (compulsive-like BIG mice): failed to reduce
